± gives the standard deviation of the averaged measurements.
Key:
[1] = system: HS-PSS; assay: drug sensitivity score (DSS, CellTiter-Glo viability, 72 h) (DSS (dimensionless)); higher = more sensitive; extreme values may be limits of the assay
Outline: (§1)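 Viability of MPNST cell lines and primary human Schwann cells was read as CellTiter-Glo ATP luminescence after 72 h at 37 °C, 5% CO2, in 384-well plates seeded with 750–1000 cells per well. Each compound had been preprinted at five concentrations in 10-fold steps. Signals were scaled between vehicle and positive-control wells, duplicates averaged where present, and fitted with four-parameter logistic curves. Drug sensitivity score and relative IC50 (censored at the top concentration) come from those fits, and percent inhibition is taken at the top concentration.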

[2] = system: HS-Sch-2; assay: as above
Outline: as §1

[3] = system: HSC1 (primary human Schwann cells); assay: as above
Outline: as §1

[4] = system: HSC2 (primary human Schwann cells); assay: as above
Outline: as §1

[5] = system: S1507-2; assay: as above
Outline: as §1

[6] = system: S462; assay: as above
Outline: as §1

[7] = system: ST8814; assay: as above
Outline: as §1

[8] = system: STS26T; assay: as above
Outline: as §1

[9] = system: YST-1; assay: as above
Outline: as §1

[10] = system: HS-PSS; assay: drug sensitivity score (DSS, CellTox-Green cytotoxicity, 72 h) (DSS (dimensionless)); higher = more cytotoxic; extreme values may be limits of the assay
Outline: (§2)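 MPNST cell lines and primary human Schwann cells were grown for 72 h at 37 °C in 384-well plates containing five 10-fold compound dilutions. CellTox-Green, added before seeding at a final 1:1000 dilution, gave fluorescence from DNA released by disrupted cells, and signals were scaled to vehicle and positive-control wells. Curves were fitted with a four-parameter logistic model. Drug sensitivity score and relative IC50 come from these fits, with IC50 censored at the top concentration.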

[11] = system: HSC1 (primary human Schwann cells); assay: as above
Outline: as §2

[12] = system: HSC2 (primary human Schwann cells); assay: as above
Outline: as §2

[13] = system: S1507-2; assay: as above
Outline: as §2

[14] = system: ST8814; assay: as above
Outline: as §2

[15] = system: STS26T; assay: as above
Outline: as §2

[16] = system: HS-PSS; assay: % inhibition of CellTiter-Glo viability at highest tested concentration (72 h), relative to DMSO and benzethonium chloride controls; higher = more inhibition
Outline: as §1

[17] = system: HS-Sch-2; assay: as above
Outline: as §1

[18] = system: HSC1 (primary human Schwann cells); assay: as above
Outline: as §1

[19] = system: HSC2 (primary human Schwann cells); assay: as above
Outline: as §1

[20] = system: S462; assay: as above
Outline: as §1

[21] = system: S1507-2; assay: as above
Outline: as §1

[22] = system: ST8814; assay: as above
Outline: as §1

[23] = system: STS26T; assay: as above
Outline: as §1

[24] = system: HS-PSS; assay: relative IC50 (inflection point of fitted dose-response curve, CellTox-Green cytotoxicity, 72 h; top asymptote may be below 50%); higher = less potent
Outline: as §2

[25] = system: HS-PSS; assay: relative IC50 (inflection point of fitted dose-response curve, CellTiter-Glo viability, 72 h; top asymptote may be below 50% inhibition); higher = less potent
Outline: as §1

[26] = system: HS-Sch-2; assay: as above
Outline: as §1

[27] = system: YST-1; assay: as above
Outline: as §1

SMILES | drug sensitivity score [1] | drug sensitivity score [2] | drug sensitivity score [3] | drug sensitivity score [4] | drug sensitivity score [5] | drug sensitivity score [6] | drug sensitivity score [7] | drug sensitivity score [8] | drug sensitivity score [9] | drug sensitivity score [10] | drug sensitivity score [11] | drug sensitivity score [12] | drug sensitivity score [13] | drug sensitivity score [14] | drug sensitivity score [15] | % inhibition [16] | % inhibition [17] | % inhibition [18] | % inhibition [19] | % inhibition [20] | % inhibition [21] | % inhibition [22] | % inhibition [23] | relative IC50 [24] | relative IC50 [25] | relative IC50 [26] | relative IC50 [27]
CS(=O)(=O)N1CCN(Cc2cc3nc(-c4cccc5[nH]ncc45)nc(N4CCOCC4)c3s2)CC1 [Pictilisib] (max concentration tested 10000 nM) | 5.78 | 4.35 | 7.89 | 7.76 | 13.4 ± 2.3 | 6.98 ± 0.18 | 9.07 | 13.3 | 14.6 | 0 | 0 | 0 | 0.342 ± 0.48 | 1.86 | 0 | 52.1% | 51% | 78.7% | 83.3% | 68.53 ± 0.23% | – | – | – | – | – | – | –
CN(C)C(=N)NC(=N)N [Metformin aq] (max concentration tested 100000 nM) | – | – | 0 | 0 | 0 | 0 | 0 | 0 | – | – | 0 | 0 | 0.0766 ± 0.11 | 0 | 0 | – | – | -13.1% | -15.5% | 1.42 ± 6.1% | 6.36 ± 5.3% | 7.41% | 5.16% | – | – | – | –
c1cc(CN2CCCNCCNCCCNCC2)ccc1CN1CCCNCCNCCCNCC1 [Plerixafor aq] (max concentration tested 10000 nM) | – | – | 0 | 0 | 0 | 0 | 0 | 0 | – | – | 0 | 2.79 | 5.26 ± 3 | 0 | 0.908 | – | – | -10.1% | -6.48% | -4.54 ± 3.1% | -14.1 ± 20% | 4.25% | 3.99% | – | – | – | –
C[C@H]1C=C2C(=O)O[C@H]3CC[C@@H](C1)[C@@]23O [Galiellalactone] (max concentration tested 50000 nM) | – | – | 11.2 | 7.95 | 7.75 ± 0.57 | 9.23 ± 1.4 | 7.08 | 9.38 | – | – | 0.367 | 0 | 2.69 ± 1.4 | 0 | 2.26 | – | – | 97.6% | 98.5% | 100 ± 2.5% | 92.8 ± 14% | 88.9% | 101% | – | – | – | –
CC(C)NC[C@@H](C(=O)N1CCN(c2ncnc3c2[C@H](C)C[C@H]3O)CC1)c1ccc(Cl)cc1 [GDC-0068] (max concentration tested 10000 nM) | – | – | 0.374 | 0 | 2.03 ± 1 | 0.195 ± 0.28 | 0.785 | 5.77 | – | – | 0 | 0 | 0 | 0 | 0 | – | – | 21.6% | 6.99% | 13.5 ± 7.9% | 31.5 ± 4.2% | 17.1% | 44% | – | – | – | –
CC1=C2C[C@H]3[C@@H](CC=C4C[C@@H](O)CC[C@@]43C)[C@@H]2CC[C@]12O[C@@H]1C[C@H](C)CN[C@H]1[C@H]2C [Cyclopamine] (max concentration tested 10000 nM) | – | – | 0 | 0 | 0.114 ± 0.16 | 0 | 0 | 0 | – | – | 0 | 0 | 0.06 ± 0.085 | 0 | 0 | – | – | 9.19% | 7.88% | -1.34 ± 2.9% | 11.5 ± 3% | -4.3% | 4.33% | – | – | – | –
Cc1sc2c(c1C)C(c1ccc(Cl)cc1)=N[C@@H](CC(=O)OC(C)(C)C)c1nnc(C)n1-2 [(+)JQ1] (max concentration tested 10000 nM) | – | – | 10.2 | 10.4 | 18.5 ± 0.8 | 11.3 ± 0.7 | 14.8 | 8.02 | – | – | 0 | 0 | 12.7 ± 1.7 | 5.02 | 0 | – | – | 61.1% | 66% | 69.3 ± 1.7% | 86.1 ± 1% | 75.6% | 43.2% | – | – | – | –
CCC(C)(C)C(=O)O[C@H]1C[C@@H](C)C=C2C=C[C@H](C)[C@H](CC[C@@H]3C[C@@H](O)CC(=O)O3)[C@H]21 [Simvastatin] (max concentration tested 10000 nM) | 3.55 | 0 | 8.22 | 9.94 | 0.00035 ± 0.00049 | 2.409 ± 0.0062 | 0.23 | 0.448 | 0 | – | – | – | – | – | – | – | – | – | – | – | – | – | – | – | – | – | –
COC1=C2C[C@@H](C)C[C@H](OC)[C@H](O)[C@@H](C)/C=C(\C)[C@H](OC(N)=O)[C@@H](OC)/C=C\C=C(/C)C(=O)NC(=CC1=O)C2=O [Geldanamycin] (max concentration tested 10000 nM) | – | – | 16.7 | 16.7 | 8.65 ± 0.52 | 15.8 ± 0.19 | 12 | 12.3 | – | – | 20.4 | 20.2 | 5.24 ± 1.8 | 2.65 | 8.09 | – | – | 96.7% | 94.7% | 98.4 ± 1.8% | 97.21 ± 0.53% | 90.6% | 94.2% | – | – | – | –
Cn1nnc2c(C(N)=O)ncn2c1=O [Temozolomide] (max concentration tested 10000 nM) | – | – | 0 | 0 | 0.17 ± 0.24 | 0 | 0.0241 | 0 | – | – | 0 | 0 | 0 | 0 | 0 | – | – | 8.86% | 2.06% | 2.61 ± 0.65% | 9.8 ± 9.4% | 11.9% | 8.32% | – | – | – | –
CCN(CC)CCCC(C)Nc1c2ccc(Cl)cc2nc2ccc(OC)cc12 (stereo not given) [Mepacrine aq] (max concentration tested 50000 nM) | – | – | 18.6 | 18 | 19.92 ± 0.17 | 20.5 ± 1.6 | 20.5 | 18.9 | – | – | 20.7 | 19.6 | 23.5 ± 4.6 | 14.7 | 15.8 | – | – | 95.9% | 95% | 95.06 ± 0.61% | 98.51 ± 0.17% | 96.3% | 96.5% | – | – | – | –
COCC1(CO)C(=O)C2CCN1CC2 (stereo not given) [Prima-1 Met] (max concentration tested 10000 nM) | – | – | 1.87 | 2.14 | 2.75 ± 3.9 | 1.58 ± 1.1 | 0 | 0.507 | – | – | 0 | 0 | 7.59 ± 11 | 0 | 0 | – | – | 26.3% | 32.4% | 19.1 ± 8.4% | 6.31 ± 9.8% | 8.31% | 14.6% | – | – | – | –
N[C@@H](CSC(c1ccccc1)(c1ccccc1)c1ccccc1)C(=O)O [S-trityl-L-cysteine] (max concentration tested 40000 nM) | – | – | 0.233 | 0 | 0 | 0.0379 ± 0.054 | 0 | 0.0666 | – | – | 0 | 0 | 0 | 0 | 0 | – | – | 14.8% | -1.33% | 8.17 ± 9.1% | 3.83 ± 4.3% | 7.25% | 13% | – | – | – | –
Cc1ccc(C(=O)Nc2ccc(CN3CCN(C)CC3)c(C(F)(F)F)c2)cc1C#Cc1cnc2cccnn12 [Ponatinib] (max concentration tested 1000 nM) | 2.2 | 5.57 | 6.62 | 6.49 | 6.1 ± 0.6 | 5.51 ± 0.34 | 8.31 | 3.91 | 4.76 | – | – | – | – | – | – | – | – | – | – | – | – | – | – | – | – | – | –
CC[C@@]1(O)C(=O)OCc2c1cc1n(c2=O)Cc2cc3ccccc3nc2-1 [Camptothecin] | – | – | – | – | – | – | – | – | – | – | – | – | – | – | – | – | – | – | – | – | – | – | – | 358 nM | 199 nM | 63.4 nM | 40.1 nM
Cc1cc(OCc2nnc(SC3CCCC3)n2-c2cccnc2)ccc1-c1ccc(S(C)(=O)=O)cc1 [NMS-873] | – | – | – | – | – | – | – | – | – | – | – | – | – | – | – | – | – | – | – | – | – | – | – | 2950 nM | 101 nM | 193 nM | 1490 nM
CCCOc1ccn2c(C(C)=O)cc(-c3ccccc3S(C)(=O)=O)c2c1 [GSK2801] | – | – | – | – | – | – | – | – | – | – | – | – | – | – | – | – | – | – | – | – | – | – | – | > 10000 nM | > 10000 nM | > 10000 nM | > 10000 nM
Cc1nc(N)sc1-c1ccnc(Nc2ccc(N3CCOCC3)cc2)n1 [CYC-116] | – | – | – | – | – | – | – | – | – | – | – | – | – | – | – | – | – | – | – | – | – | – | – | > 10000 nM | 1390 nM | 1580 nM | 510 nM
CC(C)[C@H]1C(=O)N[C@@H](CCCNC(=N)N)C(=O)NCC(=O)N[C@@H](CC(=O)O)C(=O)N[C@H](Cc2ccccc2)C(=O)N1C [Cilengitide] | – | – | – | – | – | – | – | – | – | – | – | – | – | – | – | – | – | – | – | – | – | – | – | > 10000 nM | > 10000 nM | 3250 nM | > 10000 nM

From the supplement of paper PMC5579334
